The values below are quoted from earlier work in patent US20230172901A1, “COMPOSITIONS AND METHODS FOR THE PROPHYLAXIS AND TREATMENT OF FIBROTIC AND INFLAMMATORY CONDITIONS” (GRETALS AUSTRALIA PTY LTD, priority 2020, published 2023).

The test system of this data set is IPF patients. The note with it: prior art, cited from earlier work.

As for `COC(=O)c1ccc2c(c1)NC(=O)/C2=C(\Nc1ccc(N(C)C(=O)CN2CCN(C)CC2)cc1)c1ccccc1` [Nintendanib], under “IPF patients”, the “quality of life / respiratory parameters” value is “can improve quality of life” and the survival entry is “do not improve survival”.

For the compound `Cc1ccc(=O)n(-c2ccccc2)c1` [Perfenidone], the side effects entry was “provokes a range of side effects in the skin, gastrointestinal tract, liver, and nervous system”. Besides, where the note is “IPF patients”, the progression-free survival result is reported as “improve progression-free survival”.
